Reference: publication PMC7570497, “Design, Synthesis and Functional Analysis of Cyclic Opioid Peptides with Dmt-Tic Pharmacophore” (Molecules, 2020)
Bridge positions count the residues as written; N and C are the ends. Square brackets hold non-standard residues; d marks the D form. Peptide text beside a SMILES is read from it. Phe(2,4-F2) = N[C@@H](Cc1ccc(F)cc1F)C(=O)O; d2Nal = N[C@H](Cc1ccc2ccccc2c1)C(=O)O; Dmt = Cc1cc(O)cc(C)c1C[C@H](N)C(=O)O; Tic = O=C(O)[C@@H]1Cc2ccccc2CN1; dDap = NC[C@@H](N)C(=O)O

Legend:
human KOR = target: T1, human KOR (Homo sapiens, UniProt P41145); test: Calcium mobilization assay, agonist mode, KOR; assay type: cell-based; settings: for KOR pEC50 (CL95%) / KOR α ± SEM (efficacy, intrinsic activity): CHO cells co-expressing human KOR and Gαqi5, inactive = inactive up to 10 μM, n ≥ 5; for KOR pEC50 (CL95%): Fluo-4 AM, reference agonist dynorphin A, mean ± SEM; for KOR α ± SEM (efficacy, intrinsic activity): ratio of peptide Emax to Emax of dynorphin A
T1 construct: expressed in transfected cells; host or cells: CHO cells (gift from Prof. Girolamo Calo, Ferrara University)
T1 sequence (P41145 whole entry): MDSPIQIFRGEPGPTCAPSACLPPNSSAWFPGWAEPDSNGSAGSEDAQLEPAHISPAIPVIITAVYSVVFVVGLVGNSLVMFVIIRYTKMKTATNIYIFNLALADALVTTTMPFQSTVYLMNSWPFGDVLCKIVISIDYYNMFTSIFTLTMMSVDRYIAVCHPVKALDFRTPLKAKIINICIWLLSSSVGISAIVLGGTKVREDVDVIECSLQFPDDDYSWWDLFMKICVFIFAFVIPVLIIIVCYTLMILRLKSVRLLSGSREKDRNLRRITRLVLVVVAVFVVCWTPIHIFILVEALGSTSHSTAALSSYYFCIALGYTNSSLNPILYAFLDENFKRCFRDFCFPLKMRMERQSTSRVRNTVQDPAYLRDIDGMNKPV
Description: (§1) Calcium mobilization assay was performed as reported previously. CHO cells stably co-expressing human MOR or KOR and the C-terminally modified Gαqi5 and CHO cells co-expressing DOR and the GαqG66Di5 protein were used for the tests. Briefly, cells incubated for 24 h in 96-well black, clear-bottom plates were loaded with medium supplemented with probenecid (2.5 mmol/L), calcium-sensitive fluorescent dye Fluo-4 AM (3 μmol/L) and pluronic acid (0.01%) and kept at 37 °C for 30 min. Following aspiration of the loading solution and a washing step, serial dilutions of peptide stock solutions were added. Cells without peptides were treated as the control. […] Ligand efficacy was expressed as intrinsic activity (α) calculated as a ratio of the peptide Emax to Emax of the standard agonist.

DOR [1] = target: T2, DOR (Homo sapiens, UniProt P41143); test: Calcium mobilization assay, antagonism of DPDPE at DOR
T2 sequence (P41143 whole entry): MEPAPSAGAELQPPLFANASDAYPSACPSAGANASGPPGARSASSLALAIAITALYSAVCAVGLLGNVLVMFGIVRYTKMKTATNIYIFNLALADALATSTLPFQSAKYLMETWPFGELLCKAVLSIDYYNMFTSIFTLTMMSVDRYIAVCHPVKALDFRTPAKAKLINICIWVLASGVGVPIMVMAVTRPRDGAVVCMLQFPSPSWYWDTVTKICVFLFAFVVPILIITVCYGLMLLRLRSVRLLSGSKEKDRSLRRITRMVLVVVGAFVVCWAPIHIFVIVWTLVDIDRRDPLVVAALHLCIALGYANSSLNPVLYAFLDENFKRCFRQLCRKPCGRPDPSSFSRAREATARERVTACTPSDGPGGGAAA

human MOR = target: T3, human MOR (Homo sapiens, UniProt P35372); test: Calcium mobilization assay, agonist mode, MOR; assay type: cell-based; settings: for MOR α ± SEM (efficacy, intrinsic activity): ratio of peptide Emax to Emax of dermorphin
T3 construct: expressed in transfected cells; host or cells: CHO cells (gift from Prof. Girolamo Calo, Ferrara University)
T3 sequence (P35372 whole entry): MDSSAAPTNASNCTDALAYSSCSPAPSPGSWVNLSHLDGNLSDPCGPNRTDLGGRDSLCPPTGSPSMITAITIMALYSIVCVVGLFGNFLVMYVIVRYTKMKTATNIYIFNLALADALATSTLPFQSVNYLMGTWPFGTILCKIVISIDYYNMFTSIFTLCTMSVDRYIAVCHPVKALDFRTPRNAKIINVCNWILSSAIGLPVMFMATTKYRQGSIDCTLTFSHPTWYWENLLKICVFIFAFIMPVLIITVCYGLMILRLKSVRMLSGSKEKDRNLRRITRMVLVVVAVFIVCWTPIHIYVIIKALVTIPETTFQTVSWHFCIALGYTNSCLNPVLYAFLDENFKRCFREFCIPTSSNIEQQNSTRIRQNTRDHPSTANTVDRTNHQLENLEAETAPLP

DOR [2] = target: T2, DOR; test: Calcium mobilization assay, agonist mode, DOR; assay type: cell-based; design: expressed in transfected cells; host or cells: CHO cells (gift from Prof. Girolamo Calo, Ferrara University); settings: CHO cells co-expressing DOR and GαqG66Di5, inactive = inactive up to 10 μM, n ≥ 5; for DOR pEC50 (CL95%): Fluo-4 AM, reference agonist DPDPE, mean ± SEM; for DOR α ± SEM (efficacy, intrinsic activity): ratio of peptide Emax to Emax of DPDPE
Description: as §1

[3] = Enzymatic stability in rat brain homogenate; assay type: in vitro ADME; settings: rat brain homogenate 10 mg protein/mL in Tris.HCl 50 mM pH 7.4; 100 μL homogenate + 100 μL peptide (0.5 mM); 37 °C; 60 min; HPLC area %; three independent experiments; read-out: Enzymatic Stability Area [%]: amount of peptide remained after 60 min incubation with rat brain homogenate
Description: The metabolic stability of analogs was assessed in the presence of the rat brain homogenate. All new cyclopeptides remained almost intact after 60 min incubation with the homogenate (Table 1).
Enzymatic degradation studies of the analogs were carried out using rat brain homogenate (10 mg protein/mL). To prepare, the homogenate rat brains were isolated, pooled and homogenized in a Polytron with 20 volumes of Tris.HCl (50 mM, pH 7.4), and the homogenate was then stored at −80°C until use. Aliquots of the homogenate (100 μL) were incubated with 100 μL of peptide (0.5 mM) over 0, 7.5, 15, 22.5, 30, and 60 min at 37 °C, in a final volume of 200 μL. The reaction was stopped at the required time by placing the tube on ice and acidifying the content with 20 μL of HCl (1 M). The aliquots were centrifuged at 20,000× g for 10 min at 4 °C. The supernatants were filtered over Millex-GV syringe filters (Millipore, Billerica, MA, USA) and analyzed by HPLC on a Vydac C18 column (4.6 mm × 250 mm, 5 μm,), using the solvent system of 0.1% TFA in water (A) and 80% acetonitrile in water containing 0.1% TFA (B) and a linear gradient of 0–100% B over 25 min. Three independent experiments for each assay were carried out. The amount of remaining peptide (area %) was calculated.

[4] = LC-MS elution order in reverse-phase chromatography to estimate lipophilicity; assay type: physicochemical; settings: LC-MS (XIC); Aeris Peptide XB-C18 and Kinetex Biphenyl columns, identical order on both; gradient 5–80% acetonitrile in water in 10 min, 0.1% HCOOH
Description: The lipophilicity of compounds is often a useful characteristic allowing one to predict or rationalize their interactions with a given receptor [40]. Here, the liquid chromatography–mass spectrometry (LC-MS) procedure was applied to study the elution order of analogs in the reverse-phase chromatography to estimate their lipophilicity. The mixture of peptides 1–6 was run in the same experimental conditions on two types of columns, an Aeris Peptide C18 column and a novel biphenyl stationary phase HPLC column. The biphenyl column can be complementary to a C18 column, as it can engage in π–π interactions with the eluted compound [41]. As expected, peptides were more retained on the biphenyl column, due to the π stacking interactions of their aromatic rings with the solid support.
Figure 1 LC-MS chromatograms (extracted ion currents (XIC)) for peptides 1–6. Panel (A): Aeris Peptide XB-C18 column. Panel (B): Kinetex Biphenyl column. […]
Protected amino acids were purchased from Bachem AG (Bubendorf, Switzerland). p-Methylbenzhydrylamine (MBHA) resin was obtained from Novabiochem (San Diego, CA, USA). Semi-preparative and analytical RP-HPLC was performed using Waters Breeze instrument (Milford, MA, USA) with the dual absorbance detector (Waters 2487) on a Vydac C18 column (22 × 250 mm, 10 μm) and Vydac C18 column (4.6 × 250 mm, 5 μm), respectively. […]

[5] = CHO cells co-expressing human MOR and Gαqi5, inactive = inactive up to 10 μM, n ≥ 5

## CC1(C)SSC(C)(C)[C@@H](NC(=O)[C@@H](N)Cc2ccc(O)cc2)C(=O)NCC(=O)N[C@@H](Cc2ccccc2)C(=O)N[C@H]1C(=O)O [DPDPE, reference compound]
Human KOR
  KOR pEC50 (CL95%): inactive
  KOR α ± SEM (efficacy, intrinsic activity): inactive

## Cc1cc(O)cc(C)c1C[C@H](N)C(=O)N1Cc2ccccc2C[C@H]1C(=O)N[C@@H]1CCCCNC(=O)C[C@@H](C(N)=O)NC(=O)[C@H](Cc2ccccc2)NC(=O)[C@H](Cc2ccccc2)NC1=O [compound 1, Dmt-Tic-c[D-Lys-Phe-Phe-Asp]NH2] (H-[Dmt][Tic][dK]FFD-NH2; lactam 3-6)
Human KOR
  KOR α ± SEM (efficacy, intrinsic activity): 0.20 ± 0.06
Human KOR; read-out: KOR pEC50 (CL95%) (converted)
  EC50: 490 nM
DOR [1]
  Kb: 42.7 nM
Human MOR
  EC50: 661 nM
Human MOR; [5]
  MOR α ± SEM (efficacy, intrinsic activity): 0.15 ± 0.02
DOR [2]
  DOR pEC50 (CL95%): inactive
  DOR α ± SEM (efficacy, intrinsic activity): inactive
[3]
  remaining at 1 h, 0.25 mM: 97.88 ± 0.83%

## Cc1cc(O)cc(C)c1C[C@H](N)C(=O)N1Cc2ccccc2C[C@H]1C(=O)N[C@@H]1CCCCNC(=O)C[C@@H](C(N)=O)NC(=O)[C@@H](Cc2ccc3ccccc3c2)NC(=O)[C@H](Cc2ccccc2)NC1=O [compound 2, Dmt-Tic-c[D-Lys-Phe-D-2Nal-Asp]NH2] (H-[Dmt][Tic][dK]F[d2Nal]D-NH2; lactam 3-6)
Human KOR
  KOR pEC50 (CL95%): inactive
  KOR α ± SEM (efficacy, intrinsic activity): inactive
DOR [1]
  Kb: 28.2 nM
Human MOR
  EC50: 617 nM
Human MOR; [5]
  MOR α ± SEM (efficacy, intrinsic activity): 0.37 ± 0.05
DOR [2]
  DOR pEC50 (CL95%): inactive
  DOR α ± SEM (efficacy, intrinsic activity): inactive
[3]
  remaining at 1 h, 0.25 mM: 98.17 ± 0.23%

## Cc1cc(O)cc(C)c1C[C@H](N)C(=O)N1Cc2ccccc2C[C@H]1C(=O)N[C@@H]1CCCCNC(=O)C[C@@H](C(N)=O)NC(=O)[C@H](Cc2ccc(F)cc2F)NC(=O)[C@H](Cc2ccccc2)NC1=O [compound 3, Dmt-Tic-c[D-Lys-Phe-2,4F2-Phe-Asp]NH2] (H-[Dmt][Tic][dK]F[Phe(2,4-F2)]D-NH2; lactam 3-6)
[3]
  remaining at 1 h, 0.25 mM: 95.19 ± 0.86%

## Cc1cc(O)cc(C)c1C[C@H](N)C(=O)N1Cc2ccccc2C[C@H]1C(=O)N[C@@H]1CNC(=O)C[C@@H](C(N)=O)NC(=O)[C@H](Cc2ccccc2)NC(=O)[C@H](Cc2ccccc2)NC1=O [compound 4, Dmt-Tic-c[D-Dap-Phe-Phe-Asp]NH2] (H-[Dmt][Tic][dDap]FFD-NH2; lactam 3-6)
Human KOR
  KOR pEC50 (CL95%): inactive
  KOR α ± SEM (efficacy, intrinsic activity): inactive
DOR [1]
  Kb: 2.45 nM
Human MOR; CHO cells co-expressing human MOR and Gαqi5, Fluo-4 AM, reference agonist dermorphin, inactive = inactive up to 10 μM, mean ± SEM, n ≥ 5
  MOR pEC50 (CL95%): inactive
Human MOR; [5]
  MOR α ± SEM (efficacy, intrinsic activity): inactive
DOR [2]
  DOR pEC50 (CL95%): inactive
  DOR α ± SEM (efficacy, intrinsic activity): inactive
[3]
  remaining at 1 h, 0.25 mM: 96.21 ± 0.89%

## Cc1cc(O)cc(C)c1C[C@H](N)C(=O)N1Cc2ccccc2C[C@H]1C(=O)N[C@@H]1CCCCNC(=O)C[C@@H](C(N)=O)NC(=O)[C@H](Cc2ccccc2)NC1=O [compound 5, Dmt-Tic-c[D-Lys-Phe-Asp]NH2] (H-[Dmt][Tic][dK]FD-NH2; lactam 3-5)
Human KOR
  KOR pEC50 (CL95%): inactive
  KOR α ± SEM (efficacy, intrinsic activity): inactive
DOR [1]
  Kb: 0.525 nM
[4]
  Elution order in reverse-phase chromatography (lipophilicity): least lipophilic
Human MOR
  EC50: 813 nM
Human MOR; [5]
  MOR α ± SEM (efficacy, intrinsic activity): 0.3 ± 0.03
DOR [2]
  DOR pEC50 (CL95%): inactive
  DOR α ± SEM (efficacy, intrinsic activity): inactive
[3]
  remaining at 1 h, 0.25 mM: 96.76 ± 0.91%

## Cc1cc(O)cc(C)c1C[C@H](NC(=O)[C@@H]1Cc2ccccc2CN1C(=O)[C@@H]1CC(=O)NCCCC[C@@H](NC(=O)[C@@H]2Cc3ccccc3CN2C(=O)[C@@H](N)Cc2c(C)cc(O)cc2C)C(=O)N[C@@H](Cc2ccccc2)C(=O)N1)C(N)=O [compound 6, Dmt-Tic-c[D-Lys-Phe-Asp]-Tic-Dmt-NH2] (H-[Dmt][Tic][dK]FD[Tic][Dmt]-NH2; lactam 3-5)
Human KOR
  KOR pEC50 (CL95%): inactive
  KOR α ± SEM (efficacy, intrinsic activity): inactive
DOR [1]
  Kb: 1.1 nM
Human MOR
  EC50: 331 nM
Human MOR; [5]
  MOR α ± SEM (efficacy, intrinsic activity): 0.17 ± 0.20
DOR [2]
  DOR pEC50 (CL95%): inactive
  DOR α ± SEM (efficacy, intrinsic activity): inactive
[3]
  remaining at 1 h, 0.25 mM: 97.6 ± 1.2%

## C[C@@H](NC(=O)[C@@H](N)Cc1ccc(O)cc1)C(=O)N[C@@H](Cc1ccccc1)C(=O)NCC(=O)N[C@@H](Cc1ccc(O)cc1)C(=O)N1CCC[C@H]1C(=O)N[C@@H](CO)C(N)=O [dermorphin, reference compound]
Human KOR
  KOR pEC50 (CL95%): inactive
  KOR α ± SEM (efficacy, intrinsic activity): inactive
Human MOR; [5]
  MOR α ± SEM (efficacy, intrinsic activity): 1.00
DOR [2]
  DOR pEC50 (CL95%): inactive
  DOR α ± SEM (efficacy, intrinsic activity): inactive

## CC[C@H](C)[C@H](NC(=O)[C@H](CCCNC(=N)N)NC(=O)[C@H](CCCNC(=N)N)NC(=O)[C@H](CC(C)C)NC(=O)[C@H](Cc1ccccc1)NC(=O)CNC(=O)CNC(=O)[C@@H](N)Cc1ccc(O)cc1)C(=O)N[C@@H](CCCNC(=N)N)C(=O)N1CCC[C@H]1C(=O)N[C@@H](CCCCN)C(=O)N[C@@H](CC(C)C)C(=O)N[C@@H](CCCCN)C(=O)N[C@@H](Cc1c[nH]c2ccccc12)C(=O)N[C@@H](CC(=O)O)C(=O)N[C@@H](CC(N)=O)C(=O)N[C@@H](CCC(N)=O)C(=O)O [dynorphin A, reference compound]
DOR [2]
  DOR α ± SEM (efficacy, intrinsic activity): 0.99 ± 0.04
